Results from patent publication US8685992B2, “Histone deacetylase inhibitors based simultaneously on trisubstituted 1H-pyrroles and aromatic and heteroaromatic spacers” (Universidad del País Vasco, priority 2009, dated 2014).

What was measured:
[1] = tested on: Nuclear Extract from HeLa Cells; experiment: HeLa Nuclear Extract HDAC assay; assay type: biochemical, human; settings: 50 μM substrate, 30° C., 2 h, read-out: IC50 (nM) of enzyme activity HeLa
[2] = molecular target: histone deacetylase from rat liver; experiment: Rat liver HDAC assay; assay type: biochemical; settings: Boc-Lys(Ac)-AMC substrate, 30° C., 2 h, read-out: IC50 (nM) of enzyme activity Rat liver
Human HDAC1 = Human HDAC1 (Homo sapiens (Human), UniProt Q13547); experiment: HDAC1 fluorogenic peptide deacetylation assay; assay type: biochemical; settings: human HDAC1, 50 μM substrate, 30° C., 2 h; read-out: IC50 (nM) of enzyme activity HDAC1
Sequence of Human HDAC1 (Q13547 whole entry): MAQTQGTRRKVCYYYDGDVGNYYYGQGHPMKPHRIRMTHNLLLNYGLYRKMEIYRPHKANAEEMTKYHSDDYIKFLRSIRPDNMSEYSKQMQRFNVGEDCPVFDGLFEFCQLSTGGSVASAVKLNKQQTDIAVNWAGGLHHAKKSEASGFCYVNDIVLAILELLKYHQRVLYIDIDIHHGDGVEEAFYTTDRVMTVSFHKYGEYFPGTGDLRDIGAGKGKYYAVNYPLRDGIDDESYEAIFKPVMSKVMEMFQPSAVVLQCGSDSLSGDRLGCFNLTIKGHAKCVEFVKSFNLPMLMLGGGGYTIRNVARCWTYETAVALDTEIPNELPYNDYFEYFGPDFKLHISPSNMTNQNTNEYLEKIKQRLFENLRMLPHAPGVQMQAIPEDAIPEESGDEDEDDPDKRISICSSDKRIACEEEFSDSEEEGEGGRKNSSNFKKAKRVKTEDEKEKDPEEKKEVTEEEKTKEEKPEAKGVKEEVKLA

Human HDAC8 = Human HDAC8 (Homo sapiens (Human), UniProt Q9BY41); experiment: HDAC8 fluorogenic peptide deacetylation assay; assay type: biochemical; settings: human HDAC8, 50 μM substrate, 30° C., 2 h; read-out: IC50 (nM) of enzyme activity HDAC8
Sequence of Human HDAC8 (Q9BY41 whole entry): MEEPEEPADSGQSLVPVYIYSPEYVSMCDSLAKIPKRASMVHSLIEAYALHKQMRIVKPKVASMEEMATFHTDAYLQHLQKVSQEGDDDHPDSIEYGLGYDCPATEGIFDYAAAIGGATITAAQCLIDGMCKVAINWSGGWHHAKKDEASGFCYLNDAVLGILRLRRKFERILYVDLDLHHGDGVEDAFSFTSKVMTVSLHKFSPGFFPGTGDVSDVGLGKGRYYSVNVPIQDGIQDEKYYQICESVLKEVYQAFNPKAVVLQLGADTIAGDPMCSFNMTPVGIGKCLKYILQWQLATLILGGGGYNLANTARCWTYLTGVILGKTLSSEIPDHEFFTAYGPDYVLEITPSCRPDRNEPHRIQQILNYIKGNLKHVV

Human HDAC3/NcoR2 = Human HDAC3/NcoR2 (Homo sapiens (Human), UniProt O15379); experiment: HDAC3 fluorogenic peptide deacetylation assay; assay type: biochemical; settings: human HDAC3/NcoR2, 50 μM substrate, 30° C., 2 h; read-out: IC50 (nM) of enzyme activity HDAC3
Sequence of Human HDAC3/NcoR2 (O15379 whole entry): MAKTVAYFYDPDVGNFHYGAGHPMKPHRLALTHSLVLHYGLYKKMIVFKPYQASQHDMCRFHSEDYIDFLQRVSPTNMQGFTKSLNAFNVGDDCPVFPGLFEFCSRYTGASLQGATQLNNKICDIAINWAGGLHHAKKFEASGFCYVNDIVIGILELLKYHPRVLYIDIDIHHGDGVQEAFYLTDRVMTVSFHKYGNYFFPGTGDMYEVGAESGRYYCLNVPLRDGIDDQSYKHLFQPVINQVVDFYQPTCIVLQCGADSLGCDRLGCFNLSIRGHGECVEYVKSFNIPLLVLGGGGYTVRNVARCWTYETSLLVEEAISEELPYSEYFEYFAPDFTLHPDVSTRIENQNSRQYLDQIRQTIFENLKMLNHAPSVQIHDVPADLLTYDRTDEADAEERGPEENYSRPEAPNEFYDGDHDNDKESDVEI
Sequence of Human HDAC3/NcoR2 (Q9Y618 395-489 partner): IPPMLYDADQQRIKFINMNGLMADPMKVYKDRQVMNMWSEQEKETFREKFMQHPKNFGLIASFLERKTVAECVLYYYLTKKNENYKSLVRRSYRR

Human HDAC2 = Human HDAC2 (Homo sapiens (Human), UniProt Q92769); experiment: HDAC2 fluorogenic peptide deacetylation assay; assay type: biochemical; settings: human HDAC2, 50 μM substrate, 30° C., 2 h; read-out: IC50 (nM) of enzyme activity HDAC2
Sequence of Human HDAC2 (Q92769 whole entry): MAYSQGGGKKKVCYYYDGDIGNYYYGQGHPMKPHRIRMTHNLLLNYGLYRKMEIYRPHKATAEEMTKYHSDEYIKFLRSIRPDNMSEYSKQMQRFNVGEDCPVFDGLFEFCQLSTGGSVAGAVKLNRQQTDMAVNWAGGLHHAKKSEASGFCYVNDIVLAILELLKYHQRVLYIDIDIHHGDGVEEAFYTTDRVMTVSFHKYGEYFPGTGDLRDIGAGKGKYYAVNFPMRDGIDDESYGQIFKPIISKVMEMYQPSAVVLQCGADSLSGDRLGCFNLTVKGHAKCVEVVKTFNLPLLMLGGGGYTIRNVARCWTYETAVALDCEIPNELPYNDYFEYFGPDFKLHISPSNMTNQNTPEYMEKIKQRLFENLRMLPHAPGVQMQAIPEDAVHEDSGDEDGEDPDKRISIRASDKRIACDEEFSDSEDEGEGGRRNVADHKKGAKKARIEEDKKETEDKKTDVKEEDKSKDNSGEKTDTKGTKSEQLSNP

Human HDAC6 = Human HDAC6 (Homo sapiens (Human), UniProt Q9UBN7); experiment: HDAC6 fluorogenic peptide deacetylation assay; assay type: biochemical; settings: human HDAC6, 50 μM substrate, 30° C., 2 h; read-out: IC50 (nM) of enzyme activity HDAC6
Sequence of Human HDAC6 (Q9UBN7 whole entry): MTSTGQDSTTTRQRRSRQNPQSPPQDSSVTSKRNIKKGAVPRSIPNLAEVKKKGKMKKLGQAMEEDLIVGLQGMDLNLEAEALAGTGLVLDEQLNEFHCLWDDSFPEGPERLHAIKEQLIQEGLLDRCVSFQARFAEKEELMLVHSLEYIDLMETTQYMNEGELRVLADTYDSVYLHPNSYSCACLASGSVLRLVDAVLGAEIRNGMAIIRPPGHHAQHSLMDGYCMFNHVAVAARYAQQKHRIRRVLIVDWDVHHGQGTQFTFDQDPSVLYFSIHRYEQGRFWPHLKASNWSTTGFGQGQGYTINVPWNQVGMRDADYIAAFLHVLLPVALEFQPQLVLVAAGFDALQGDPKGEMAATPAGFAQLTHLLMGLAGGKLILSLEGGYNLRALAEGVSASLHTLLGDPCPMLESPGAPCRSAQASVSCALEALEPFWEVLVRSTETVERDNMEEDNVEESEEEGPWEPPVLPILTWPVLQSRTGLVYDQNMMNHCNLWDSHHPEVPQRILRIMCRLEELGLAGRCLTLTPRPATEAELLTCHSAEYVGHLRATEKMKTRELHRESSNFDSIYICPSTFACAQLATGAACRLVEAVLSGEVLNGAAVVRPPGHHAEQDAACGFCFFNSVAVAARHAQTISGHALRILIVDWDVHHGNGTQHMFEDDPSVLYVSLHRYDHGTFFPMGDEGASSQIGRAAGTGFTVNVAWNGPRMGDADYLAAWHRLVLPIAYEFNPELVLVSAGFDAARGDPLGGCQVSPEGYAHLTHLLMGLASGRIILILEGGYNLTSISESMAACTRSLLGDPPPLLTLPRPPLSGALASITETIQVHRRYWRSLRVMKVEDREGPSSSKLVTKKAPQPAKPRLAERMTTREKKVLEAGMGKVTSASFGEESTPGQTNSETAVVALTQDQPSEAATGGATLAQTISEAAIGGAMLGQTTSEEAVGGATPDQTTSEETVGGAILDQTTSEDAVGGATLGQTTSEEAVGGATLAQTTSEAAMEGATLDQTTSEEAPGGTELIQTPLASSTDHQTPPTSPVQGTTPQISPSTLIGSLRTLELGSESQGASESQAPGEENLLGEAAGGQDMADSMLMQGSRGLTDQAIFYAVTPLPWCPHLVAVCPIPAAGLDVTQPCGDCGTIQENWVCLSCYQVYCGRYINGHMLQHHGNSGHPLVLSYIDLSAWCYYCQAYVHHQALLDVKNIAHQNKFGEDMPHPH

Colo205 = experiment: Cancer cell growth inhibition, Colo205; assay type: cell-based; settings: Homo sapiens, COLO 205; Colo205, Colorectal Cancer, 72 h treatment
Experimental: (§1) Cell culture-based assays were used to evaluate the ability of compounds of the invention to inhibit cancer cell growth inhibition.
(§2) Cells were obtained from the American Type Culture Collection (ATCC). Cells were cultured at 37° C. with 5% CO2 in the appropriate growth medium (see table below), and harvested respectively during the logarithmic growth period and counted with hemocytometer. The cell viability was over 98% by trypan blue exclusion. Cell concentrations were adjusted between 5×10^4 and 2×10^5 cells/ml with respective medium.
(§3) Stock solutions of test compounds and positive drugs Doxorubicin (Zhejiang, Haizheng, China), Paclitaxel (Beijing, Xiehe, China), Vincristin (Shenzhen Wanle, China), 5-FU (Tianjin jinyaoanjisuan, China), Irinotecan (Jiangsu Hengrui, China) and Cisplatin Nanjing zhiyao, China) were prepared in dimethyl sulphoxide (DMSO) or PBS at 20 mM.
(§4) All treatments were performed in triplicate. 10 μl drug solution was added to each well and incubated for 72 hours. At the end of the incubation, 20 μl of the freshly prepared MTS/PMS mixture solution was added to each well and incubated for 4 hours at 37° C. in a humidified, 5% CO2 atmosphere. Absorbance was read at 490 nm using SpectraMAX Plus microplate spectrophotometer. […] In order to calculate IC50, a dose-responsive curve was fitted using nonlinear regression model with a sigmoidal dose response.

HepG2 = experiment: Cancer cell growth inhibition, HepG2; assay type: cell-based, human; settings: HepG2, Liver Cancer, 72 h treatment
Experimental: as §1, §2, §3, §4

MIAPACA-2 = experiment: Cancer cell growth inhibition, MIAPACA-2; assay type: cell-based, human; settings: MIAPACA-2, Pancreatic Cancer, 72 h treatment
Experimental: as §1, §2, §3, §4

HCT-116 = experiment: Cancer cell growth inhibition, HCT-116; assay type: cell-based, human; settings: HCT-116, Colorectal Cancer, 72 h treatment
Experimental: as §1, §2, §3, §4

143b = experiment: Cancer cell growth inhibition, 143b; assay type: cell-based; settings: Homo sapiens, Osteosarcoma, 72 h treatment
Experimental: as §1, §2, §3, §4

MCF-7-FL = experiment: Cancer cell growth inhibition, MCF-7-FL; assay type: cell-based; settings: Homo sapiens, Breast Cancer, 72 h treatment
Experimental: as §1, §2, §3, §4

SK-HEP-1 = experiment: Cancer cell growth inhibition, SK-HEP-1; assay type: cell-based; settings: Homo sapiens, SK-HEP1; SK-HEP-1, Liver Cancer, 72 h treatment
Experimental: as §1, §2, §3, §4

HT-1080 = experiment: Cancer cell growth inhibition, HT-1080; assay type: cell-based; settings: Homo sapiens; HT-1080, Fibrosarcoma, 72 h treatment
Experimental: as §1, §2, §3, §4

BT474 = experiment: Cancer cell growth inhibition, BT474; assay type: cell-based; settings: Homo sapiens, BT-474; BT474, Breast Cancer, 72 h treatment
Experimental: as §1, §2, §3, §4

MCF-7-218 = experiment: Cancer cell growth inhibition, MCF-7-218; assay type: cell-based; settings: Homo sapiens; MCF-7-218, Breast Cancer, 72 h treatment
Experimental: as §1, §2, §3, §4

| Compound | IC50 [1] | IC50 [2] | IC50 (Human HDAC1) | melting point | IC50 (Human HDAC8) | IC50 (Human HDAC3/NcoR2) | IC50 (Human HDAC2) | IC50 (Human HDAC6) | other results |
| --- | --- | --- | --- | --- | --- | --- | --- | --- | --- |
| COc1ccc(-c2cc(-c3ccccc3)[nH]c2C(=O)NCc2ccc(C(=O)Nc3ccccc3S)cc2)cc1 [Example 22, 3-(4-methoxyphenyl)-5-phenyl-N-(4-{[(2-sulfanylphenyl)amino]carbonyl}benzyl)-1H-pyrrole-2-carboxamide] | > 5000 nM | > 10000 nM | > 5000 nM | 134 to 135 °C | > 5000 nM | > 5000 nM | > 5000 nM | > 5000 nM |  |
| CCc1c2c(nc3ccc(OC(=O)N4CCC(N5CCCCC5)CC4)cc13)-c1cc3c(c(=O)n1C2)COC(=O)[C@]3(O)CC [Irinotecan, reference compound] |  |  |  |  |  |  |  |  | IC50 (Colo205): 16600 nM |
| O=c1[nH]cc(F)c(=O)[nH]1 [Example 5-FU, 5-FU, reference compound] |  |  |  |  |  |  |  |  | IC50 (HepG2): 3280 nM; IC50 (MIAPACA-2): 7610 nM; IC50 (HCT-116): 1710 nM |
| COc1ccc(-c2cc(-c3ccccc3)[nH]c2C(=O)NCc2ccc(C(=O)Nc3ncccn3)cc2)cc1 [Example 26, 3-(4-methoxyphenyl)-5-phenyl-N-{4-[(pyrimidin-2-ylamino)carbonyl]benzyl}-1H-pyrrole-2-carboxamide] | > 5000 nM |  | > 5000 nM | 190 to 191 °C | > 5000 nM | > 5000 nM | > 5000 nM | > 5000 nM |  |
| COc1cccc2c1C(=O)c1c(O)c3c(c(O)c1C2=O)C[C@@](O)(C(=O)CO)C[C@@H]3O[C@H]1C[C@H](N)[C@H](O)[C@H](C)O1 [Doxorubicin, reference compound] |  |  |  |  |  |  |  |  | IC50 (143b): 86.1 nM; IC50 (MCF-7-FL): 2370 nM; IC50 (SK-HEP-1): 164 nM; IC50 (HT-1080): 25.6 nM; IC50 (BT474): 4500 nM |
| CC(=O)O[C@H]1C(=O)[C@@]2(C)[C@H]([C@H](OC(=O)c3ccccc3)[C@]3(O)C[C@H](OC(=O)[C@H](O)[C@@H](NC(=O)c4ccccc4)c4ccccc4)C(C)=C1C3(C)C)[C@]1(OC(C)=O)CO[C@@H]1C[C@@H]2O [Paclitaxel, reference compound] |  |  |  |  |  |  |  |  | IC50 (MCF-7-218): 285 nM |

Now from value to molecule, other results behind:

| IC50 [1] | IC50 [2] | IC50 (Human HDAC1) | melting point | IC50 (Human HDAC8) | IC50 (Human HDAC3/NcoR2) | IC50 (Human HDAC2) | IC50 (Human HDAC6) | Compound | other results |
| --- | --- | --- | --- | --- | --- | --- | --- | --- | --- |
| 34 nM | 66 nM | 473 nM | 139 to 141 °C | 340 nM | 512 nM | 1390 nM | 10.8 nM | O=C(NO)c1ccc(CNC(=O)c2[nH]c(-c3ccccc3)cc2-c2ccc(O)cc2)cc1 [Example 10, N-{4-[(hydroxyamino)carbonyl]benzyl}-3-(4-hydroxyphenyl)-5-phenyl-1H-pyrrole-2-carboxamide] |  |
| 7010 nM | > 10000 nM | 390 nM | 142 to 143 °C (dec.) | > 5000 nM | 3900 nM | 1260 nM | > 5000 nM | COc1ccc(-c2cc(-c3ccccc3)[nH]c2C(=O)NCc2ccc(C(=O)Nc3ccccc3N)cc2)cc1 [Example 21, N-(4-{[(2-aminophenyl)amino]carbonyl}benzyl)-3-(4-methoxyphenyl)-5-phenyl-1H-pyrrole-2-carboxamide] |  |
| 46.4 nM | 56 nM | 384 nM | 162 to 164 °C | 124 nM | 451 nM | 1150 nM | 42.8 nM | O=C(NO)c1ccc(CNC(=O)c2[nH]c(-c3ccoc3)cc2-c2ccc(F)cc2)cc1 [Example 12, 3-(4-fluorophenyl)-5-(3-furyl)-N-{4-[(hydroxyamino)carbonyl]benzyl}-1H-pyrrole-2-carboxamide] |  |
